Legend:
PBMCs = experiment: PBMC assay, IL-6 release (HTRF); assay type: cell-based; conditions: PBMCs from healthy donors, overnight, IL-6 induction by HTRF, average of quadruplicate
TLR7 = biological target: T1, TLR7 (Homo sapiens, UniProt Q9NYK1); experiment: Reporter gene assay, HEK-Blue TLR7 reporter cells (SEAP)
T1 sequence (Q9NYK1 27-1049): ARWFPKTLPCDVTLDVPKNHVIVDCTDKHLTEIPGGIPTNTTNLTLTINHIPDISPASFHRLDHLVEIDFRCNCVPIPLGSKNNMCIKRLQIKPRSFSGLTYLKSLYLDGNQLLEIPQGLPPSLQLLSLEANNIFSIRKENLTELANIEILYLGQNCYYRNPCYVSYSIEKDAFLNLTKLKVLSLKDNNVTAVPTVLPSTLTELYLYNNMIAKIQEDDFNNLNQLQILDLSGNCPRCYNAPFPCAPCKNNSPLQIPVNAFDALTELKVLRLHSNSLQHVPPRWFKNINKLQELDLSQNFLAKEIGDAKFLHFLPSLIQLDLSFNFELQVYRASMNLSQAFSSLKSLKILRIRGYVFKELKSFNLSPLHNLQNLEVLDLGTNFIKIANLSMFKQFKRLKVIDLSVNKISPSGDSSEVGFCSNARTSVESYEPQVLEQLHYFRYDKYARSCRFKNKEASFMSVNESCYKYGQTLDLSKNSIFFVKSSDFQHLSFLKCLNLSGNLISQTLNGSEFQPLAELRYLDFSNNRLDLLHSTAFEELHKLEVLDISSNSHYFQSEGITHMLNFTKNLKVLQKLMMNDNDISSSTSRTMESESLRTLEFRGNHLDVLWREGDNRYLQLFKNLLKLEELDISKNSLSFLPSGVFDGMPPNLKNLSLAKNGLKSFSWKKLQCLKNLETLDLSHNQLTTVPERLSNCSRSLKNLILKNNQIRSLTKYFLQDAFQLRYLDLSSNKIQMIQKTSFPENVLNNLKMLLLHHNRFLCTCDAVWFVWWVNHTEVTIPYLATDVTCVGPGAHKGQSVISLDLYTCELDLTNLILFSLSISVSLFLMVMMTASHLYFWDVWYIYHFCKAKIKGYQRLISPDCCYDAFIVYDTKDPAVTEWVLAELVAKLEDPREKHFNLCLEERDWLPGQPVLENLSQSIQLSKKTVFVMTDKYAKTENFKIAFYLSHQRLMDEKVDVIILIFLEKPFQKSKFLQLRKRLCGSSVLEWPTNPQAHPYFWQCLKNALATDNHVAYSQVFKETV
Protocol: (§1) 3×10^4 HEK-Blue™ TLR7 or 3×10^4 TLR8 reporter cells (InvivoGen, San Diego, CA) were treated with titrated (4-fold) amounts of test compound. […] Cells were incubated overnight at 37° C. and 5% CO2, then absorbance (620 and 655 nm) was read on a Synergy™ H1 microplate reader.

TLR8 = biological target: T2, TLR8 (Homo sapiens, UniProt Q9NR97); experiment: Reporter gene assay, HEK-Blue TLR8 reporter cells (SEAP)
T2 sequence (Q9NR97 27-1041): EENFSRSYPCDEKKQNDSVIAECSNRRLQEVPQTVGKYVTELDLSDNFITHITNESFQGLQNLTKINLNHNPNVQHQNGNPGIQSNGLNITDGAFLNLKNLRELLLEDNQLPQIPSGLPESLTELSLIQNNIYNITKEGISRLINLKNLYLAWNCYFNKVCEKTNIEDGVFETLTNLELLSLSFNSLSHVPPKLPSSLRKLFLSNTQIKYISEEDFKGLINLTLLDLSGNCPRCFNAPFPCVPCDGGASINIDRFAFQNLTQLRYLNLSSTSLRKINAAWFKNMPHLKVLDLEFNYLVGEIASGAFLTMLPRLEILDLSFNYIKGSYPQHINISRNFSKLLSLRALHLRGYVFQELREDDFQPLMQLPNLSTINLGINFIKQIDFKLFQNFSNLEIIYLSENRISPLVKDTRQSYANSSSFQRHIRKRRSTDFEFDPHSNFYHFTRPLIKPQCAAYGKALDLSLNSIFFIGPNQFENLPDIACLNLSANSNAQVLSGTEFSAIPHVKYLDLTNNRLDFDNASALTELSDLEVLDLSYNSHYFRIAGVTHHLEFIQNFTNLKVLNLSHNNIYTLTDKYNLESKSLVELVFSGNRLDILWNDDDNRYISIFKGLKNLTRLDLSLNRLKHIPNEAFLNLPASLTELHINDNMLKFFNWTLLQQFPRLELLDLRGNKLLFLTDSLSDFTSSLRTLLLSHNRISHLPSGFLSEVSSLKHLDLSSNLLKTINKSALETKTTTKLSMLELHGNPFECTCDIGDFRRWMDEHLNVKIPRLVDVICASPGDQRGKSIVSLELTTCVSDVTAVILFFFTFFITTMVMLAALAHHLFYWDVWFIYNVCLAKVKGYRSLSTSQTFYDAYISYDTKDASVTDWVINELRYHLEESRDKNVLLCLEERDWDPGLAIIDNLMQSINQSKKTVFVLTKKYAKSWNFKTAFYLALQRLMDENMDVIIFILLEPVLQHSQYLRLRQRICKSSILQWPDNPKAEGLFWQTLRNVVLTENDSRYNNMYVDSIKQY
Protocol: as §1

Row | EC50 (TLR7) [nM] | EC50 (TLR8) [nM] | SMILES | EC50 (PBMCs) [nM]
1 | > 1000 | > 1000 | CCCCc1nc2c(N)nc3ccsc3c2n1Cc1ccccc1CN1CCN(CCN2CCOCC2)CC1 [Compound 222, 2-butyl-1-(2-((4-(2-morpholinoethyl)piperazin-1-yl)methyl)benzyl)-1H-imidazo[4,5-d]thieno[3,2-b]pyridin-4-amine] | > 1000
2 | > 1000 | > 1000 | CCCCc1nc2c(N)nc3ccsc3c2n1Cc1ccccc1CNCCCCCO [Compound 223] | > 1000
3 | > 1000 | > 1000 | CCCCc1nc2c(N)nc3ccsc3c2n1Cc1ccccc1CNCc1ccc(CO)cc1 [Compound 224, (4-(((2-((4-amino-2-butyl-1H-imidazo[4,5-d]thieno[3,2-b]pyridin-1-yl)methyl)benzyl)amino)methyl)phenyl)methanol] | > 1000
4 | > 1000 | > 1000 | CCCCc1nc2c(N)nc3ccsc3c2n1Cc1ccccc1CNCC(C)(C)O [Compound 225, 1-((2-((4-amino-2-butyl-1H-imidazo[4,5-d]thieno[3,2-b]pyridin-1-yl)methyl)benzyl)amino)-2-methylpropan-2-ol] | > 1000
5 | 220 | > 1000 | CCCCc1nc2c(N)nc3ccsc3c2n1Cc1nc(CO)cs1 [Compound 228, (2-((4-amino-2-butyl-1H-imidazo[4,5-d]thieno[3,2-b]pyridin-1-yl)methyl)thiazol-4-yl)methanol] | > 1000
6 | 420 | > 1000 | CCCCc1nc2c(N)nc3ccsc3c2n1Cc1cccc(Cn2ccnc2)c1 [Compound 229, 1-(3-((1H-imidazol-1-yl)methyl)benzyl)-2-butyl-1H-imidazo[4,5-d]thieno[3,2-b]pyridin-4-amine] | > 1000
7 | 110 | 580 | CCCCc1nc2c(N)nc3ccsc3c2n1Cc1nc(CNCc2cc[nH]c2)cs1 [Compound 231, 1-((4-((((1H-pyrrol-3-yl)methyl)amino)methyl)thiazol-2-yl)methyl)-2-butyl-1H-imidazo[4,5-d]thieno[3,2-b]pyridin-4-amine] | 920
8 | 140 | 880 | CCCCc1nc2c(N)nc3ccsc3c2n1Cc1nc(CN(CC)CC)cs1 [Compound 233, 2-butyl-1-((4-((diethylamino)methyl)thiazol-2-yl)methyl)-1H-imidazo[4,5-d]thieno[3,2-b]pyridin-4-amine] | 630
9 | 270 | > 1000 | CCCCc1nc2c(N)nc3ccsc3c2n1Cc1nc(CN2CCN(CCN3CCOCC3)CC2)cs1 [Compound 234, 2-butyl-1-((4-((4-(2-morpholinoethyl)piperazin-1-yl)methyl)thiazol-2-yl)methyl)-1H-imidazo[4,5-d]thieno[3,2-b]pyridin-4-amine] | > 1000
10 | 190 | > 1000 | CCCCc1nc2c(N)nc3ccsc3c2n1Cc1nc(CNCc2ccc(CO)cc2)cs1 [Compound 237, (4-((((2-((4-amino-2-butyl-1H-imidazo[4,5-d]thieno[3,2-b]pyridin-1-yl)methyl)thiazol-4-yl)methyl)amino)methyl)phenyl)methanol] | 500
11 | 420 | > 1000 | CCCCc1nc2c(N)nc3ccsc3c2n1Cc1ncc(CNCC(C)(C)O)s1 [Compound 238, 1-(((2-((4-amino-2-butyl-1H-imidazo[4,5-d]thieno[3,2-b]pyridin-1-yl)methyl)thiazol-5-yl)methyl)amino)-2-methylpropan-2-ol] | > 1000
12 | 150 | > 1000 | CCCCc1nc2c(N)nc3ccsc3c2n1Cc1nc(CN2CCNCC2)cs1 [Compound 242, 2-butyl-1-((4-(piperazin-1-ylmethyl)thiazol-2-yl)methyl)-1H-imidazo[4,5-d]thieno[3,2-b]pyridin-4-amine] | > 1000
13 | > 1000 | > 1000 | CCCCc1nc2c(N)nc3ccsc3c2n1Cc1ccc(CO)o1 [Compound 253, (5-((4-amino-2-butyl-1H-imidazo[4,5-d]thieno[3,2-b]pyridin-1-yl)methyl)furan-2-yl)methanol] | > 1000
14 | 89 | > 1000 | CCCCc1nc2c(N)nc3ccsc3c2n1Cc1ccc(CNCCCCNC(=O)OCc2ccccc2)cc1 [Compound 260, benzyl (4-((4-((4-amino-2-butyl-1H-imidazo[4,5-d]thieno[3,2-b]pyridin-1-yl)methyl)benzyl)amino)butyl)carbamate] | 719
15 | 106 | > 1000 | CCCCc1nc2c(N)nc3ccsc3c2n1Cc1ccc(CNc2ccc3c(c2)CCN(C(=O)OC(C)(C)C)C3)cc1 [Compound 261, tert-butyl 6-((4-((4-amino-2-butyl-1H-imidazo[4,5-d]thieno[3,2-b]pyridin-1-yl)methyl)benzyl)amino)-3,4-dihydroisoquinoline-2(1H)-carboxylate] | 602
16 | 95 | > 1000 | CCCCc1nc2c(N)nc3ccsc3c2n1Cc1ccc(CNC2CCCN(C(=O)OC(C)(C)C)C2)cc1 (stereo not drawn) [Compound 262, tert-butyl 3-((4-((4-amino-2-butyl-1H-imidazo[4,5-d]thieno[3,2-b]pyridin-1-yl)methyl)benzyl)amino)piperidine-1-carboxylate] | > 1000
17 | 53 | > 1000 | CCCCc1nc2c(N)nc3ccsc3c2n1Cc1ccc(CN2CCC(CNC(=O)OC(C)(C)C)CC2)cc1 [Compound 263, tert-butyl ((1-(4-((4-amino-2-butyl-1H-imidazo[4,5-d]thieno[3,2-b]pyridin-1-yl)methyl)benzyl)piperidin-4-yl)methyl)carbamate] | 853
18 | 83 | > 1000 | CCCCc1nc2c(N)nc3ccsc3c2n1Cc1ccc(CNCC2CCN(C(=O)OC(C)(C)C)CC2)cc1 [Compound 264, tert-butyl 4-(((4-((4-amino-2-butyl-1H-imidazo[4,5-d]thieno[3,2-b]pyridin-1-yl)methyl)benzyl)amino)methyl)piperidine-1-carboxylate] | 153
19 | > 1000 | > 1000 | CCNCc1nc2c(N)nc3ccsc3c2n1Cc1ccc(CN2CCNCC2)cc1 [Compound 268, 2-((ethylamino)methyl)-1-(4-(piperazin-1-ylmethyl)benzyl)-1H-imidazo[4,5-d]thieno [3,2-b]pyridin-4-amine] | > 1000
20 | 186 | > 1000 | CCNCc1nc2c(N)nc3ccsc3c2n1Cc1ccc(CN(CC)CC)cc1 [Compound 269, 1-(4-((diethylamino)methyl)benzyl)-2-((ethylamino)methyl)-1H-imidazo[4,5-d]thieno [3,2-b]pyridin-4-amine] | 557

From patent US20250179088A9 (ZYMEWORKS BC INC., priority 2020, published 2025)
